# In paper PMC11406361, “Several orphan solute carriers functionally identified as organic cation transporters: Substrates specificity compared with known cation transporters” (The Journal of Biological Chemistry, 2024):
# Target: T1, SLC35F2 (Homo sapiens, UniProt Q8IXU6)
# T1 sequence (Q8IXU6 1-374): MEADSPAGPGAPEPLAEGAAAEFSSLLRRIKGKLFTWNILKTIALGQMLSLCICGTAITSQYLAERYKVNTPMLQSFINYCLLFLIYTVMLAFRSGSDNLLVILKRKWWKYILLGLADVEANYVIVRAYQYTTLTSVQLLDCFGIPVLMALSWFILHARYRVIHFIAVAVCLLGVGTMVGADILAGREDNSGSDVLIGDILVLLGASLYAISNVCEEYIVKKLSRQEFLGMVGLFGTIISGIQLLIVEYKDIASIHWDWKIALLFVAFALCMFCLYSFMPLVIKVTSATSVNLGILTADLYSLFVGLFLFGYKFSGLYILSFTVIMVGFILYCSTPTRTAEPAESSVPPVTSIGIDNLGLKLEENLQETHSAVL
# Conditions: human
compound,measurement,value
C[N+](C)(C)CCO [Choline],Clint (±SEM),2.48 (±1.47) μl × mg protein^-1 × min^-1
